Laboratory results as given in ChEMBL document CHEMBL5113459 (Bioorg Med Chem Lett, 2022).

Tests used:
Format in all cases: functional, cell-based
CWR22R = test: Antiproliferative activity against human AR-positive 22Rv1 cells assessed as cell growth inhibition incubated for 3 days by WST-1 assay; conditions: 22Rv1, 72 h
LNCaP = test: Antiproliferative activity against human AR-positive LNCaP cells assessed as cell growth inhibition incubated for 3 days by WST-1 assay; conditions: 72 h
DU-145 = test: Antiproliferative activity against human AR-negative DU-145 cells assessed as cell growth inhibition incubated for 3 days by WST-1 assay; conditions: DU-145, 72 h
PC-3 = test: Antiproliferative activity against human AR-negative PC-3 cells assessed as cell growth inhibition incubated for 3 days by WST-1 assay; conditions: PC-3, 72 h

Structure (SMILES) | IC50 (LNCaP) [nM] | IC50 (DU-145) [µM] | IC50 (PC-3) [nM] | IC50 (CWR22R) [µM]
Cc1ncsc1-c1ccc(CNC(=O)[C@@H]2C[C@@H](O)CN2C(=O)[C@@H](NC(=O)COCCOCCOc2ccc(Cl)cc2C(=O)Nc2ccc([N+](=O)[O-])cc2Cl)C(C)(C)C)cc1 | 2370 | > 10 | 2340 | 4.94
Cc1ncsc1-c1ccc(CNC(=O)[C@@H]2C[C@@H](O)CN2C(=O)[C@@H](NC(=O)COCCOCCn2cc(CCOc3ccc(Cl)cc3C(=O)Nc3ccc([N+](=O)[O-])cc3Cl)nn2)C(C)(C)C)cc1 | 1040 | > 10 | 2790 | 6.88
O=C(O)COCCOCCn1cc(CCOc2ccc(Cl)cc2C(=O)Nc2ccc([N+](=O)[O-])cc2Cl)nn1 | > 10000 | > 10 | > 10000 | > 10
O=C(Nc1ccc([N+](=O)[O-])cc1Cl)c1cc(Cl)ccc1O [NICLOSAMIDE] | 800 | 3.65 | 1920 | 1.61
C#CCCOc1ccc(Cl)cc1C(=O)Nc1ccc([N+](=O)[O-])cc1Cl | > 10000 | > 10 | > 10000 | > 10

Now from value to compound, other results behind:

IC50 (LNCaP) [nM] | IC50 (DU-145) [µM] | IC50 (PC-3) [nM] | Structure (SMILES) | IC50 (CWR22R) [µM]
> 10000 | > 10 | > 10000 | CC(C)(C)OC(=O)COCCOCCN=[N+]=[N-] | > 10
3080 | > 10 | > 10000 | CC(C)(C)OC(=O)COCCOCCn1cc(CCOc2ccc(Cl)cc2C(=O)Nc2ccc([N+](=O)[O-])cc2Cl)nn1 | > 10
> 10000 | > 10 | > 10000 | O=C(O)COCCOCCOc1ccc(Cl)cc1C(=O)Nc1ccc([N+](=O)[O-])cc1Cl | > 10
